In brackets after ≈: the same amount, converted by molar mass. Read-outs that look alike come from different tables or passages of the source.
How the values were obtained:
[1] = acute toxicity in the mouse, intraperitoneal; format: in vivo, Souris; conditions: mouse, in vivo, ip, voie intrapéritonéale; for LD50 at 48 h: souris femelles, read-out: DL 50; for mortality at 48 h: read-out: Mortalité %
Description: (§1) Les produits ont été administrés par voie intrapéritonéale à des souris femelles dont le poids variait de 18 à 30 g.
(§2) Les animaux injectés ont été maintenus dans une salle thermostatée, nourris et abreuvés à volonté.
(§3) La mortalité a été relevée à 1 heure, 4 heures, 24 heures et 48 heures.

[2] = system: souris femelles; experiment: acute toxicity in the mouse, intraperitoneal; format: in vivo; conditions: voie intrapéritonéale, dead mice of the group
Description: as §1, §2, §3

[3] = system: chiens anesthésiés; experiment: cardiovascular toxicity in the anaesthetised dog, slow perfusion; format: in vivo, Chien
Method: L'étude du composé 2 a été effectuée sur 7 chiens anesthésiés à des doses allant de 4 à 20 mg/kg en perfusion lente.

[4] = system: Souris; experiment: antireserpine activity: reserpine hypothermia; format: in vivo; conditions: réserpine 5 mg/kg i.p. 17 h before
How it was run: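 Mice in groups of 4 given reserpine 5 mg/kg i.p.; 17 hours later rectal temperature taken by thermocouple and test substance or solvent given i.p. Temperature measured hourly for 4 hours. Reported as mean temperature changes at 1, 2, 3 and 4 hours, their 4-hour sum, and percent rise versus solvent controls.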

[5] = system: Souris; experiment: tetrabenazine hypothermia; format: in vivo
Method: (§4) Ce test permet de révéler également une activité antidépressive avec l'avantage d'une lecture plus rapide qu'avec la réserpine.
Les produits sont injectés 30 minutes avant l'administration de tétrabénazine.
Les températures sont relevées aux temps : 0, 30 minutes, 60 minutes, 90 minutes et 120 minutes.
(§5) Les souris sont réparties par lots de 5.
Les températures sont relevées avant l'injection de tétrabénazine, 30 minutes, 60 minutes, 90 minutes et 120 minutes après.
(§6) Le lot témoin comprend 20 souris.

[6] = system: Souris; experiment: tetrabenazine ptosis; format: in vivo; conditions: for Ptosis 30 minutes / Ptosis 60 minutes / Ptosis 90 minutes / Ptosis 120 minutes: score 0-4 per eye
Method: as §4, §5
Le ptosis est noté avant l'injection de tétrabénazine, 30 minutes, 60 minutes, 90 minutes et 120 minutes après.
On a adopté la notation suivante : • - 0 : pour un oeil ouvert, • - 1 : pour un oeil fermé au quart, • - 2 : pour un oeil fermé à moitié, • - 3 : pour un oeil fermé aux trois-quarts, • - 4 : pour un oeil fermé complètement.
as §6

[7] = system: Souris; experiment: analgesic activity, phenylbenzoquinone writhing technique; format: in vivo
Method: Ce test consiste à rechercher une éventuelle protection vis-à-vis des crampes ou contorsions abdominales provoquées chez la Souris par injection intrapéritonéale de phénylbenzoquinone.
Les souris sont réparties au hasard par lots de 4 dans des cristallisoirs.
Le compose 2 a été injecté par voie intrapéritonéale, 30 minutes avant l'injection de la phénylbenzoquinone.
Les crampes abdominales sont comptées pour chaque souris pendant 30 minutes à partir de la quinzième minute qui suit l'injection de l'agent algogène.

[8] = system: Iléon de cobaye; experiment: spasmolytic action, anticholinergic effect (acetylcholine contraction); format: cell-based; conditions: acétylcholine 3 à 6 x 10^-5 mg/ml, six préparations; read-out: DE 50 (effet anticholinergique)
Method: (§7) Les essais ont été effectués sur l'Iléon de cobaye maintenu en survie dans une solution de Tyrode oxygénée et thermostabilisée à 37° C suivant le méthode de MAGNUS.
(§8) L'action spasmolytique du composé 2 a été étudiée en opposition avec les propriétés spasmogènes de l'acétylcholine, du chlorure de baryum, de l'histamine et de la sérotonine.
Ces essais ont été effectués sur six préparations. L'effet inhibiteur du composé 2 a été recherché à l'encontre des propriétés contracturantes de l'acétylcholine utilisée à la concentration de 3 à 6 x 10^-5 mg/ml pour une cuve de 30 ml.

[9] = system: Iléon de cobaye; experiment: spasmolytic action, anti barium chloride effect; format: cell-based; conditions: BaCl2 6 x 10^-2 mg/ml
Method: as §7, §8
Ces essais ont été effectués sur douze préparations. Six ont été utilisées pour la recherche d'inhibition de la contraction ba- rytique dite curative, les six autres pour les essais dits "préventif baryum".
La concentration de BaCl2 utilisée comme agent contracturant est de 6 x 10^-2 mg/ml.

[10] = system: Iléon de cobaye; experiment: spasmolytic action, antihistaminic effect; format: cell-based; conditions: histamine 0,5 à 3 x 10^-5 mg/ml, cinq préparations; read-out: DE 50 envers le spasme provoqué par l'histamine
Method: as §7, §8
Ces essais ont été pratiqués sur cinq préparations. L'histamine a été utilisée à la concentration de 0,5 à 3 x 10^-5 mg/ml.

[11] = system: rat; experiment: medium-term toxicity in the rat, per os, 5 weeks; conditions: per os, 2, 10 et 50 mg/kg pendant 5 semaines
Method: Cette étude a eu pour but de rechercher les effets éventuels du composé 2 sur les différents paramètres biologiques hématologi -ques et histologiques du rat après traitement per os à raison de 2,10 et 50 mg/kg pendant 5 semaines.

[12] = product i.p. 5 mg/kg 30 min before tétrabénazine 32 mg/kg i.v.
[13] = 20 mg/kg/IP 30 min before phényl-benzoquinone 10 mg/kg/IP
[14] = 50 mg/kg/IP 30 min before phényl-benzoquinone 10 mg/kg/IP
[15] = product i.p. 25 mg/kg 30 min before tétrabénazine 32 mg/kg i.v.

## CN(C)CCN1c2ccccc2C2ON=C(c3ccccc3)C2c2ccccc21 (stereo not drawn) [Composé 2, (β-diméthylaminoéthyl)-8 phényl-3 trihydro-3a,8, 12b (dibenzo [b,f]isoxazolo [4,5-d])azépine]
[1]
  LD50 at 48 h: 95 mg/kg
[1]; 10 mg/kg
  mortality at 48 h: 0%
[1]; 50 mg/kg
  mortality at 48 h: 0%
[1]; 75 mg/kg
  mortality at 48 h: 0%
[1]; 100 mg/kg
  mortality at 48 h: 60%
[1]; 200 mg/kg
  mortality at 48 h: 100%
[2]; 10 mg/kg
  Mortalité en 1 heure: 0
  Mortalité en 48 h.: 0
[2]; 50 mg/kg
  Mortalité en 1 heure: 0
  Mortalité en 48 h.: 0
[2]; 75 mg/kg
  Mortalité en 1 heure: 0
  Mortalité en 48 h.: 0
[2]; 100 mg/kg
  Mortalité en 1 heure: 3
  Mortalité en 48 h.: 3
[2]; 200 mg/kg
  Mortalité en 1 heure: 4
  Mortalité en 48 h.: 5
[3]; in vivo, 20 mg/kg
  toxicité sur le système cardiovasculaire comparativement à l'imipramine: plus faible toxicité
[4]; ip, 4 h, product i.p. 5 mg/kg, read-out: % d'augmentation par rapport aux témoins
  change in vivo at 5 mg/kg: 155%
[4]; product i.p. 5 mg/kg
  variation de température T= 2h: +1,6
  variation de température T=3h: +0,7
  variation de température T=4h: +1,4
[5]; ip, 2 h, hypothermie, product i.p. 5 mg/kg 30 min before tétrabénazine 32 mg/kg i.v., read-out: % de protection
  inhibition in vivo at 5 mg/kg: 3%
[5]; [12]
  Température après tétrabénazine 30 minutes: -3,2
  Température après tétrabénazine 60 minutes: -2,6
  Température après tétrabénazine 90 minutes: -1,3
  Température après tétrabénazine 120 minutes: -1,3
  Température après tétrabénazine Total: -8,3
[6]; ip, 2 h, ptosis, product i.p. 5 mg/kg 30 min before tétrabénazine 32 mg/kg i.v., read-out: % de protection
  inhibition in vivo at 5 mg/kg: 5%
[6]; [12]
  Ptosis Total: 28,6
  Ptosis 30 minutes: 4,8
  Ptosis 60 minutes: 7,8
  Ptosis 90 minutes: 8
  Ptosis 120 minutes: 8
[7]; [13]
  % de protection: 70%
  Nombre de crampes en 30 minutes: 35
[7]; [14]
  % de protection: 100%
  Nombre de crampes en 30 minutes: 0
[7]; in vivo
  action protectrice envers le syndrome douloureux à la phénylbenzoquinone: action protectrice importante
[8]
  EC50: 0.5 µg/mL (≈ 1.3 µM)
[9]; curative, read-out: concentration for inhibition de 50% de l'effet spasmogène, essais curatifs
  IC50: 1 µg/mL (≈ 2.61 µM)
[9]; Cavia porcellus, preventive, read-out: concentration for inhibition de 50% de l'effet spasmogène, essais préventifs
  IC50: 0.5 µg/mL (≈ 1.3 µM)
[10]
  EC50: ~0.05 µg/mL (≈ 0.13 µM)
[11]
  paramètres biologiques hématologiques et histologiques du rat: aucune modification

## CC(CN(C)C)CN1c2ccccc2C=Cc2ccccc21 (stereo not shown) [compound 22, (méthyl-2 diméthylamino-3 propyl)-5 dibenzo [b,f] 5H azépine, reference compound]
[1]
  LD50 at 48 h: 75 mg/kg
[1]; 25 mg/kg
  mortality at 48 h: 0%
[1]; 50 mg/kg
  mortality at 48 h: 20%
[1]; 100 mg/kg
  mortality at 48 h: 100%
[2]; 25 mg/kg
  Mortalité en 1 heure: 0
  Mortalité en 48 heures: 0
[2]; 50 mg/kg
  Mortalité en 1 heure: 0
  Mortalité en 48 h.: 1
[2]; 100 mg/kg
  Mortalité en 1 heure: 4
  Mortalité en 48 h.: 5
[4]; ip, 4 h, product i.p. 25 mg/kg, read-out: % d'augmentation par rapport aux témoins
  change in vivo at 25 mg/kg: 85%
[4]; product i.p. 25 mg/kg
  variation de température T= 2h: +0,5
  variation de température T=3h: +1
  variation de température T=4h: +0,4
[5]; ip, 2 h, hypothermie, product i.p. 25 mg/kg 30 min before tétrabénazine 32 mg/kg i.v., read-out: % de protection
  inhibition in vivo at 25 mg/kg: 50%
[5]; [15]
  Température après tétrabénazine 30 minutes: -3,5
  Température après tétrabénazine 60 minutes: -0,1
  Température après tétrabénazine 90 minutes: -0,6
  Température après tétrabénazine 120 minutes: -0,1
  Température après tétrabénazine Total: -4,3
[6]; ip, 2 h, ptosis, product i.p. 25 mg/kg 30 min before tétrabénazine 32 mg/kg i.v., read-out: % de protection
  inhibition in vivo at 25 mg/kg: 11%
[6]; [15]
  Ptosis Total: 26,8
  Ptosis 30 minutes: 5,6
  Ptosis 60 minutes: 6,8
  Ptosis 90 minutes: 6,8
  Ptosis 120 minutes: 7,6

## CN(C)CCCN1c2ccccc2CCc2ccccc21 [imipramine, reference compound]
[3]; chiens anesthésiés, perfusion lente
  retour vers les valeurs de départ des paramètres enregistrés, dès l'arrêt de l'injection: n'a pas été constatée

Reference: EP0063525A1, “Dibenzazepine tetracyclic derivatives, process for their preparation and pharmaceutical compositions containing them” (CENTRE NATIONAL DE LA RECHERCHE SCIENTIFIQUE (CNRS), priority 1981, dated 1982)
